Activity calls are given as the source filed them.
Key:
Caspase-6 = target: T1, Caspase-6 (Homo sapiens, UniProt P55212); assay: human caspase-6 inhibitors, dose response, biochemical, VEID-R110 fluorescence, cherry-pick (AID 720632)
T1 sequence (P55212 whole entry): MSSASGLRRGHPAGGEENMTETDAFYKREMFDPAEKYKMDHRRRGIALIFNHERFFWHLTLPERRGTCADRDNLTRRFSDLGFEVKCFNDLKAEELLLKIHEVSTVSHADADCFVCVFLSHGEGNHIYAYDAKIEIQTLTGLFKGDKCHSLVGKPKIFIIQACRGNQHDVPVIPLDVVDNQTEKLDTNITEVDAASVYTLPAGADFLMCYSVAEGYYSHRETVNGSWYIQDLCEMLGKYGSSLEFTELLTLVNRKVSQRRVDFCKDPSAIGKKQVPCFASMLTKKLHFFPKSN

[1] = target: T2, Tyrosyl-DNA phosphodiesterase 2 (Homo sapiens, UniProt O95551); assay: human TDP2 enzyme inhibitors, dose response, biochemical, epi absorbance, IC50 (AID 743297)
T2 sequence (O95551 whole entry): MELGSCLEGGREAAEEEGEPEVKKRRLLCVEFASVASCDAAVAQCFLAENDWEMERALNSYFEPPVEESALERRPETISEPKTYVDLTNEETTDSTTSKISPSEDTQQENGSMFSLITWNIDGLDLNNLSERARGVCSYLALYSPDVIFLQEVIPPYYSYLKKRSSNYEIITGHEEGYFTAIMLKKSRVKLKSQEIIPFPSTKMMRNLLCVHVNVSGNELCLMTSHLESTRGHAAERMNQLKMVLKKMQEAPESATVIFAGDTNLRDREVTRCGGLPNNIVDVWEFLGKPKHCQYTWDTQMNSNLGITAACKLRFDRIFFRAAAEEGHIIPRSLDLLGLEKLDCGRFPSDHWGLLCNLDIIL

[2] = target: Serine/threonine-protein kinase pim-1 (Homo sapiens, UniProt P11309); assay type: functional
[3] = target: T3, Serine/threonine-protein kinase D3 (Homo sapiens, UniProt O94806); assay type: functional;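 note: determined within a kinase panel screen, with PRKCN as the panel member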
T3 sequence (O94806 whole entry): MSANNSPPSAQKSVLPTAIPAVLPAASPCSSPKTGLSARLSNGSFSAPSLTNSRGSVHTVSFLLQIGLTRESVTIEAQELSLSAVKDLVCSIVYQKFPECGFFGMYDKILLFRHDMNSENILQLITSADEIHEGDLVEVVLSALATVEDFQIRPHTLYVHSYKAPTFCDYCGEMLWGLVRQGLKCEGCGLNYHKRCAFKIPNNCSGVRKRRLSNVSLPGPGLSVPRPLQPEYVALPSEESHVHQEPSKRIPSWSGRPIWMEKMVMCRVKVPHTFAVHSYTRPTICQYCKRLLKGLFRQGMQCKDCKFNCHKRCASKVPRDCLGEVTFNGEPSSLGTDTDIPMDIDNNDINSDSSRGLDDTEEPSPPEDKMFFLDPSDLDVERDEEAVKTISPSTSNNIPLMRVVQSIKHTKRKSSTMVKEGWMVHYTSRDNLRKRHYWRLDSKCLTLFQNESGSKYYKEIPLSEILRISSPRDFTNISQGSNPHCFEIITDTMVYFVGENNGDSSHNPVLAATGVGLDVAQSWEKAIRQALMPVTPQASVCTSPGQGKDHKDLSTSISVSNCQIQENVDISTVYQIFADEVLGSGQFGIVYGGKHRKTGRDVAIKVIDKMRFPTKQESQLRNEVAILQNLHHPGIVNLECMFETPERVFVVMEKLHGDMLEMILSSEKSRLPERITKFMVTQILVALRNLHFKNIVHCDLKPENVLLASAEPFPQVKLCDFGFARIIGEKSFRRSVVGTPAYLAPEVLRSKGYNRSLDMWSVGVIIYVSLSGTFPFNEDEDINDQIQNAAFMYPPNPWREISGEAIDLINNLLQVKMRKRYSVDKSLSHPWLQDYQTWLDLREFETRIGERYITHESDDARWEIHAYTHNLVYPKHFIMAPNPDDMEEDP

[4] = target: Hepatocyte growth factor receptor (Homo sapiens, UniProt P08581); assay type: functional;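 note: kinase panel profiling across the kinome, with MET as the panel member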
[5] = target: T4, Serine/threonine-protein kinase Chk1 (Homo sapiens, UniProt O14757); assay type: functional;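 note: measured as one member of a kinome-wide kinase profiling panel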
T4 sequence (O14757 whole entry): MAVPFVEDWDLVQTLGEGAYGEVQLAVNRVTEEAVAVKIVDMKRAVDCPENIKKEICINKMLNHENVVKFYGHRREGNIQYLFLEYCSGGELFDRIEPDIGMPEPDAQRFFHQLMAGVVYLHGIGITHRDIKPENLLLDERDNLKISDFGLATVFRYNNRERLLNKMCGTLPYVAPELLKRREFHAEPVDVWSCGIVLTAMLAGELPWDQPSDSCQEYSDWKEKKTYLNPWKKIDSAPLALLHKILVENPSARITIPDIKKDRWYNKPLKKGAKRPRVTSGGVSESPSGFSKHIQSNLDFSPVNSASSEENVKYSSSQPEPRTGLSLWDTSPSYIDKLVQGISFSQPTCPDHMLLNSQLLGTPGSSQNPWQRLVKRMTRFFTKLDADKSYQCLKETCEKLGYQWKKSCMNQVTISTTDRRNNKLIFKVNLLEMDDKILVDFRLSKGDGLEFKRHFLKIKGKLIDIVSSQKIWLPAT

[6] = target: Death-associated protein kinase 3 (Homo sapiens, UniProt O43293); assay type: functional;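 note: measured as one member of a kinome-wide profiling panel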
[7] = target: ALK tyrosine kinase receptor (Homo sapiens, UniProt Q9UM73); assay type: functional;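 note: ALK tested as one member of a kinase panel screen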
[8] = target: Dual specificity protein kinase CLK2 (Homo sapiens, UniProt P49760); assay type: functional
[9] = target: Serine/threonine-protein kinase PAK 4 (Homo sapiens, UniProt O96013); assay type: functional;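 note: value obtained within a kinome profiling panel in which PAK4 was one of the panel members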
[10] = target: Cyclin-dependent kinase 8 (Homo sapiens, UniProt P49336); assay: Navigating the Kinome. Panel member name: CDK8; assay type: functional
[11] = target: Glycogen synthase kinase-3 alpha (Homo sapiens, UniProt P49840); assay type: functional;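 note: GSK3A result taken from a broad kinome-wide kinase panel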
[12] = target: 5'-AMP-activated protein kinase catalytic subunit alpha-1 (Homo sapiens, UniProt Q13131); assay type: functional
[13] = target: Vascular endothelial growth factor receptor 1 (Homo sapiens, UniProt P17948); assay type: functional;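 note: measured within a kinome-wide profiling panel, FLT1 as the panel member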
Chain of Vascular endothelial growth factor receptor 1 (P17948 whole entry): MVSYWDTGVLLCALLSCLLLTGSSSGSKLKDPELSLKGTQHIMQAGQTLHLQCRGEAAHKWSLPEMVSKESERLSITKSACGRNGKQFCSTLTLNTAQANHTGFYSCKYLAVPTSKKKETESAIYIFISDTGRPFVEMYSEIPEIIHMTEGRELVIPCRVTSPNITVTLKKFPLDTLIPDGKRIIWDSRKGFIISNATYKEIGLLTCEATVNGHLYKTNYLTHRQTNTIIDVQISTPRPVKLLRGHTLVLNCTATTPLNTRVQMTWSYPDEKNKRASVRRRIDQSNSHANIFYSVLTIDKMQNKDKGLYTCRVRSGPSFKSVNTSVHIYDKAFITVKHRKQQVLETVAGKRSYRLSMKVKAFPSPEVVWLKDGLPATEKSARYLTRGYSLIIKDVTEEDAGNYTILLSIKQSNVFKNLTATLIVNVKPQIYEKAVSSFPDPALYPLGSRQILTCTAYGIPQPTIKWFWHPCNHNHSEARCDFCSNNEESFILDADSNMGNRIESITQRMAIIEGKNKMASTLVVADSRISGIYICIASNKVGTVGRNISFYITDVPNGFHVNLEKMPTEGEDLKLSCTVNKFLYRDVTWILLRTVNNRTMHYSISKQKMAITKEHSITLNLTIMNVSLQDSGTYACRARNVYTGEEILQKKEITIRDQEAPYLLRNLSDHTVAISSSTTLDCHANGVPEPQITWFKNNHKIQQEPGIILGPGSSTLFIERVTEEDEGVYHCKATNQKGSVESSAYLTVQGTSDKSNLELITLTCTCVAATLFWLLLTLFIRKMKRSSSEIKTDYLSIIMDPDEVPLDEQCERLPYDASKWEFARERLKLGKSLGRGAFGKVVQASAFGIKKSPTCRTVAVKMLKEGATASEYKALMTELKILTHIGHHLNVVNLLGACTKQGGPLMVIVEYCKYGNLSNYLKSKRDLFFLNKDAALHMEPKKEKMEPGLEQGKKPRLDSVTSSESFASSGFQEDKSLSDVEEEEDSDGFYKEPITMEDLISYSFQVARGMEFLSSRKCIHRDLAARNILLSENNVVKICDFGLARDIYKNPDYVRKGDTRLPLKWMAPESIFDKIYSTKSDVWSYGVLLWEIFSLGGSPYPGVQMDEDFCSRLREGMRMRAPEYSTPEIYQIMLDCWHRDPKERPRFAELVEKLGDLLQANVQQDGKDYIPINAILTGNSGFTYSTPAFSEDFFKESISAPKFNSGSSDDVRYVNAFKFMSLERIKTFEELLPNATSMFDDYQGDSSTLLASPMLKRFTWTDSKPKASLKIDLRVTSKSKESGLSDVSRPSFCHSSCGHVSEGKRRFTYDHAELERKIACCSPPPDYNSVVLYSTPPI

Chain of 5'-AMP-activated protein kinase catalytic subunit alpha-1 (Q13131 whole entry): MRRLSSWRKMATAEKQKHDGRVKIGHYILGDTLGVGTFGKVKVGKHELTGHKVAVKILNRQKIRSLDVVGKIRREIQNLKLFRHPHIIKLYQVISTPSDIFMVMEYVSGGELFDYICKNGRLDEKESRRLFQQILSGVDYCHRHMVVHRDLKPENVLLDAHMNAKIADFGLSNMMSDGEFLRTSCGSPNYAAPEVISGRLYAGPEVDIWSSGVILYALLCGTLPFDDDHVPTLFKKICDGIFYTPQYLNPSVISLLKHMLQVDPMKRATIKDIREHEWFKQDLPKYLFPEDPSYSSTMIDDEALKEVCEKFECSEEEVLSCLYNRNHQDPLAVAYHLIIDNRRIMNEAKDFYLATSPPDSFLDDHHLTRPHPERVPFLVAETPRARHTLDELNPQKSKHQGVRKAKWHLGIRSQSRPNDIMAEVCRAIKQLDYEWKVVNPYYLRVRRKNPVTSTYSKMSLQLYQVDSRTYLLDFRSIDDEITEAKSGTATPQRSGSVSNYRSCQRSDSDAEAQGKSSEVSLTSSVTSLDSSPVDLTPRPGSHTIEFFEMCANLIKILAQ
Chain of Dual specificity protein kinase CLK2 (P49760 whole entry): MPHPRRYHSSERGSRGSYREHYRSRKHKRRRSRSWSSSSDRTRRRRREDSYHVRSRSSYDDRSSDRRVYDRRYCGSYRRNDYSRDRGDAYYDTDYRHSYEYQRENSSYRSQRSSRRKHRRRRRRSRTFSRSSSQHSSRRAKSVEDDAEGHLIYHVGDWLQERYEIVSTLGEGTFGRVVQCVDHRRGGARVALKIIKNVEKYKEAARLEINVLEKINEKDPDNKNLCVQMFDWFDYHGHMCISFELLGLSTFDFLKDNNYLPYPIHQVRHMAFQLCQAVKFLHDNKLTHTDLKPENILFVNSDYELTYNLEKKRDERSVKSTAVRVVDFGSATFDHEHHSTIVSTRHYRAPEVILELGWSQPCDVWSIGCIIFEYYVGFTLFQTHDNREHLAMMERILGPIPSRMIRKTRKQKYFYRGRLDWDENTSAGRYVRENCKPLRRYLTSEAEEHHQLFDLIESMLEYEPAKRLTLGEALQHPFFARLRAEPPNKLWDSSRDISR
Chain of Glycogen synthase kinase-3 alpha (P49840 whole entry): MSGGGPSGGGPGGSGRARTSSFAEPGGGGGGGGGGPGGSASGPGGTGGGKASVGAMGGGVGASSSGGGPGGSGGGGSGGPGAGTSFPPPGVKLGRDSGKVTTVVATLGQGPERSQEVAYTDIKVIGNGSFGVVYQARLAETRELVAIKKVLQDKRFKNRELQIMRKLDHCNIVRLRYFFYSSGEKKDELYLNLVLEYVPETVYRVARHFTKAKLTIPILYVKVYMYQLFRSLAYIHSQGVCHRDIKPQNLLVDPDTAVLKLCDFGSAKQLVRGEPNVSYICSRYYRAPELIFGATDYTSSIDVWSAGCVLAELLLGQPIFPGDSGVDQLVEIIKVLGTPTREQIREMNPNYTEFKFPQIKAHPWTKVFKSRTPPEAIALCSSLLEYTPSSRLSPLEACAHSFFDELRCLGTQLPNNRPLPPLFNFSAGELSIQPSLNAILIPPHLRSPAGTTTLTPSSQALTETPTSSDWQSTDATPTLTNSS
Chain of Death-associated protein kinase 3 (O43293 whole entry): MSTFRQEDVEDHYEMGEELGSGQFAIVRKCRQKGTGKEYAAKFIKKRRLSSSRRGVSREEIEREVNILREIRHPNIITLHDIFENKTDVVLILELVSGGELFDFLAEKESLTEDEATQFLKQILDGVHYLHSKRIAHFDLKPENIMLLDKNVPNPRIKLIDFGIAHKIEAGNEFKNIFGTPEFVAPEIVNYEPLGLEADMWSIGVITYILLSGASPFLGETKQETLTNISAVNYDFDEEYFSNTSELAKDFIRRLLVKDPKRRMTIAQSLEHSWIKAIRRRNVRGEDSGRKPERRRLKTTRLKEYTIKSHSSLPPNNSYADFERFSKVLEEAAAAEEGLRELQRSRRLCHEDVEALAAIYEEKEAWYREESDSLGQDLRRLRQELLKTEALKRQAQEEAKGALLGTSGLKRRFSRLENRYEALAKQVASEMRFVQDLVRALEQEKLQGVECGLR
Chain of Serine/threonine-protein kinase pim-1 (P11309 whole entry): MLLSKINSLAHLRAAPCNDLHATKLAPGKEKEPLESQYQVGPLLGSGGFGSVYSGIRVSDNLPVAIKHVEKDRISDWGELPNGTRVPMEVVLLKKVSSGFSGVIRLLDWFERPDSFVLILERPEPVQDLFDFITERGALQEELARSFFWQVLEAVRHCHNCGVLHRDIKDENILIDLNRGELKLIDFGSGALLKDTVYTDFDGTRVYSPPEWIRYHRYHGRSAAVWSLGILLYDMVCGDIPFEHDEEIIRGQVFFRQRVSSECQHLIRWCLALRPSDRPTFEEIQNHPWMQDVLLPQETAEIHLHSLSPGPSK
Chain of Serine/threonine-protein kinase PAK 4 (O96013 whole entry): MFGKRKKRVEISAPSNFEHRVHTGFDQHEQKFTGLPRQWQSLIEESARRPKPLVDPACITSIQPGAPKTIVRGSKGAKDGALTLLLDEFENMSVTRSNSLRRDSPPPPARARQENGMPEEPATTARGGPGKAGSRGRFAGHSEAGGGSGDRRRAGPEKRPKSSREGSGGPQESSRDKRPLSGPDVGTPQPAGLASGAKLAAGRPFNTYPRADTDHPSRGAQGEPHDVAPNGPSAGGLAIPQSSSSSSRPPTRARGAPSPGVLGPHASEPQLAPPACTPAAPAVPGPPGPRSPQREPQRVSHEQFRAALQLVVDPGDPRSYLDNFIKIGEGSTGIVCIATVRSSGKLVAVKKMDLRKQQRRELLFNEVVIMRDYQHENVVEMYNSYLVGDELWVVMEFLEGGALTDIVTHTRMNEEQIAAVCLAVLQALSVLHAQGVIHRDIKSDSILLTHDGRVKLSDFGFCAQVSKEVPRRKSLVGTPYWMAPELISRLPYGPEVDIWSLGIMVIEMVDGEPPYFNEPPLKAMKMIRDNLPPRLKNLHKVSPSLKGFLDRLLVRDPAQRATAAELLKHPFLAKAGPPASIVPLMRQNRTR
Chain of Cyclin-dependent kinase 8 (P49336 whole entry): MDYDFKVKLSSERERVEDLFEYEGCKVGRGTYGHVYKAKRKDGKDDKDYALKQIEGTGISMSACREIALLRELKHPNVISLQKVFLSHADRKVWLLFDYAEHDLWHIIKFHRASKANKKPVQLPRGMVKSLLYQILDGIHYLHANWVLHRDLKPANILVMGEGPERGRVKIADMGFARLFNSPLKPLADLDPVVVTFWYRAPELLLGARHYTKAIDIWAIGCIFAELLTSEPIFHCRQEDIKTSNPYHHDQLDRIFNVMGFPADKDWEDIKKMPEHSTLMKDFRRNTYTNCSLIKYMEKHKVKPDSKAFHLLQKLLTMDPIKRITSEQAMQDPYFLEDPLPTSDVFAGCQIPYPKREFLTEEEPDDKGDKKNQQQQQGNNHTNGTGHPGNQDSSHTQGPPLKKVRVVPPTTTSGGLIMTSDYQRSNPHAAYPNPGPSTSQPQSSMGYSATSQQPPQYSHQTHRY

Ki [2]	Ki [3]	Ki [4]	Ki [5]	Ki [7]	Ki [8]	Ki [9]	Ki [10]	Ki [11]	Ki [12]	Ki [13]	SMILES	AC50 (Caspase-6)	IC50 [1]	Ki [6]	also measured
–	–	–	–	–	–	–	–	–	–	–	CCN(CC)CCCC(C)n1c2nc(=O)[nH]c(=O)c-2nc2cc(Cl)ccc21 (stereo not drawn)	305 nM (active)	10500 nM (inactive)	–	–
> 6310 nM (inactive)	> 3980 nM (inactive)	> 2510 nM (inactive)	> 3160 nM (inactive)	> 6310 nM (inactive)	> 3980 nM (inactive)	> 5010 nM (inactive)	> 3980 nM (inactive)	> 3980 nM (inactive)	> 3160 nM (inactive)	> 3980 nM (inactive)	COc1cccc(CNC(=O)c2cnc(-c3ccncc3)nc2)c1	–	–	> 5010 nM (inactive)	–
1000 nM (active)	15.8 nM (active)	> 3160 nM (inactive)	398 nM (active)	> 1260 nM (inactive)	7.94 nM (active)	25.1 nM (active)	0.794 nM (active)	63.1 nM (active)	126 nM (active)	158 nM (active)	OC1CCC(Nc2nc(Cl)cc(-c3c[nH]c4ncccc34)n2)CC1 (stereo not drawn)	–	–	79.4 nM (active)	pKi [2]: 6; pKi [3]: 7.8; pKi [5]: 6.4; pKi [6]: 7.1; pKi [8]: 8.1; pKi [9]: 7.6; pKi [10]: 9.1; pKi [11]: 7.2; pKi [12]: 6.9; pKi [13]: 6.8
–	–	–	–	–	–	–	–	–	–	–	O=C(COC(=O)c1ccc([N+](=O)[O-])s1)Nc1ccc(F)cc1	1960 nM (active)	64200 nM (inactive)	–	–

Reference: ChEMBL document CHEMBL1201862, “PubChem BioAssay data set” (2004)
